Experimental data: US20200017496A1 (priority 2017, published 2020)
Like-named read-outs stand apart in the source and are kept apart here.

Tested on: Klebsiella pneumoniae (KPN) isolates
Test: MIC of compounds alone and combined with antibacterials, broth microdilution (CLSI)
Format: cell-based
Settings: for MIC: Klebsiella pneumoniae, read-out: MIC
Description: Method 2: MIC of Compounds Alone and Combined with Antibacterials Against Bacterial Isolates.
Compounds of the present invention were assessed against genotyped bacterial strains (Table 3, 4) alone or in combination with an antibacterial (Table 2). […] Log phase bacterial suspensions were adjusted to a final density of 5·10^5 CFU/mL in cation-adjusted Mueller-Hinton broth (ca-MHB; Becton-Dickinson and Company) and added to each well (98 μL). Microplates were incubated for 16-20 h at 35° C. in ambient air. The MIC of the compounds was defined as the lowest concentration of said compounds that prevented bacterial growth as read by visual inspection. The MIC of ATB at each compound concentration was defined as the lowest concentration of ATB that prevented bacterial growth as read by visual inspection.

C=CC1=C(C(=O)O)N2C(=O)[C@@H](NC(=O)/C(=N\OCC(=O)O)c3csc(N)n3)[C@H]2SC1 [FIX, Cefixime]
8 µg/mL: MIC ATB in combination (KPN 260252, AF1 @ 4 μg/mL) | MIC ATB in combination (KPN UFR77, AF1 @ 8 μg/mL)
128 µg/mL: MIC ATB in combination (KPN UFR78, AF1 @ 4 μg/mL)
> 128 µg/mL: MIC (BAA1898, strain KPN BAA-1898 (TEM-1, SHV-11, SHV-12, KPC-2), ATB alone) | MIC (KPN 110376, alone) | MIC (KPN 131119, alone) | MIC (KPN 190270, alone) | MIC (KPN UFR25, alone)
64 µg/mL: MIC (BAA1898, strain KPN BAA-1898 (TEM-1, SHV-11, SHV-12, KPC-2), CLA @ 4 μg/ml+ ATB)
4 µg/mL: MIC ATB in combination (KPN 140513, AF1 @ 4 μg/mL) | MIC ATB in combination (KPN 260252, AF1 @ 8 μg/mL) | MIC ATB in combination (KPN UFR79, AF1 @ 8 μg/mL) | MIC ATB in combination (KPN UFR220, AF1 @ 4 μg/mL)
2 µg/mL: MIC ATB in combination (KPN UFR27, AF1 @ 8 μg/mL) | MIC ATB in combination (KPN UFR67, AF1 @ 4 μg/mL) | MIC ATB in combination (KPN UFR81, AF1 @ 8 μg/mL) | MIC ATB in combination (KPN UFR220, AF1 @ 8 μg/mL) | MIC ATB in combination (KPN UFR221, AF1 @ 4 μg/mL)
0.25 µg/mL: MIC ATB in combination (KPN UFR66, AF1 @ 8 μg/mL) | MIC ATB in combination (KPN UFR68, AF1 @ 8 μg/mL)
0.5 µg/mL: MIC ATB in combination (KPN 140513, AF1 @ 8 μg/mL) | MIC ATB in combination (KPN 190128, AF1 @ 4 μg/mL) | MIC ATB in combination (KPN 190270, AF1 @ 4 μg/mL) | MIC ATB in combination (KPN 260251, AF1 @ 8 μg/mL) | MIC ATB in combination (KPN 270077, AF1 @ 4 μg/mL) | MIC ATB in combination (KPN UFR24, AF1 @ 4 μg/mL) | MIC ATB in combination (KPN UFR24, AF1 @ 8 μg/mL) | MIC ATB in combination (KPN UFR67, AF1 @ 8 μg/mL) | MIC ATB in combination (KPN UFR227O, AF1 @ 8 μg/mL)
32 µg/mL: MIC ATB in combination (KPN UFR78, AF1 @ 8 μg/mL) | MIC ATB in combination (KPN UFR222, AF1 @ 4 μg/mL)
16 µg/mL: MIC ATB in combination (KPN UFR27, AF1 @ 4 μg/mL) | MIC ATB in combination (KPN UFR77, AF1 @ 4 μg/mL) | MIC ATB in combination (KPN UFR79, AF1 @ 4 μg/mL) | MIC ATB in combination (KPN UFR81, AF1 @ 4 μg/mL) | MIC ATB in combination (KPN UFR222, AF1 @ 8 μg/mL)
<=0.25 μg/mL: MIC ATB in combination (KPN 131119, AF1 @ 8 μg/mL) | MIC ATB in combination (KPN 160143, AF1 @ 4 μg/mL) | MIC ATB in combination (KPN 160143, AF1 @ 8 μg/mL) | MIC ATB in combination (KPN 190128, AF1 @ 8 μg/mL) | MIC ATB in combination (KPN 190270, AF1 @ 8 μg/mL) | MIC ATB in combination (KPN 190425, AF1 @ 4 μg/mL) | MIC ATB in combination (KPN 190425, AF1 @ 8 μg/mL) | MIC ATB in combination (KPN 190551, AF1 @ 4 μg/mL) | MIC ATB in combination (KPN 190551, AF1 @ 8 μg/mL) | MIC ATB in combination (KPN 200047, AF1 @ 4 μg/mL) | MIC ATB in combination (KPN 200047, AF1 @ 8 μg/mL) | MIC ATB in combination (KPN 200327, AF1 @ 4 μg/mL) | MIC ATB in combination (KPN 200327, AF1 @ 8 μg/mL) | MIC ATB in combination (KPN 260251, AF1 @ 4 μg/mL) | MIC ATB in combination (KPN 260376, AF1 @ 4 μg/mL) | MIC ATB in combination (KPN 260376, AF1 @ 8 μg/mL) | MIC ATB in combination (KPN 270077, AF1 @ 8 μg/mL) | MIC ATB in combination (KPN 700603, AF1 @ 4 μg/mL) | MIC ATB in combination (KPN 700603, AF1 @ 8 μg/mL) | MIC ATB in combination (KPN ARA, AF1 @ 4 μg/mL) | MIC ATB in combination (KPN ARA, AF1 @ 8 μg/mL) | MIC ATB in combination (KPN BAA-1898, AF1 @ 4 μg/mL) | MIC ATB in combination (KPN BAA-1898, AF1 @ 8 μg/mL) | MIC ATB in combination (KPN LIB, AF1 @ 4 μg/mL) | MIC ATB in combination (KPN LIB, AF1 @ 8 μg/mL) | MIC ATB in combination (KPN UFR22_O, AF1 @ 4 μg/mL) | MIC ATB in combination (KPN UFR22_O, AF1 @ 8 μg/mL) | MIC ATB in combination (KPN UFR23, AF1 @ 4 μg/mL) | MIC ATB in combination (KPN UFR23, AF1 @ 8 μg/mL) | MIC ATB in combination (KPN UFR25, AF1 @ 4 μg/mL) | MIC ATB in combination (KPN UFR25, AF1 @ 8 μg/mL) | MIC ATB in combination (KPN UFR28, AF1 @ 4 μg/mL) | MIC ATB in combination (KPN UFR28, AF1 @ 8 μg/mL) | MIC ATB in combination (KPN UFR65, AF1 @ 4 μg/mL) | MIC ATB in combination (KPN UFR65, AF1 @ 8 μg/mL) | MIC ATB in combination (KPN UFR80, AF1 @ 4 μg/mL) | MIC ATB in combination (KPN UFR80, AF1 @ 8 μg/mL) | MIC ATB in combination (KPN UFR215, AF1 @ 4 μg/mL) | MIC ATB in combination (KPN UFR215, AF1 @ 8 μg/mL) | MIC ATB in combination (KPN UFR216, AF1 @ 4 μg/mL) | MIC ATB in combination (KPN UFR216, AF1 @ 8 μg/mL) | MIC ATB in combination (KPN UFR217, AF1 @ 4 μg/mL) | MIC ATB in combination (KPN UFR217, AF1 @ 8 μg/mL) | MIC ATB in combination (KPN UFR219, AF1 @ 4 μg/mL) | MIC ATB in combination (KPN UFR219, AF1 @ 8 μg/mL) | MIC ATB in combination (KPN UFR221, AF1 @ 8 μg/mL)
1 µg/mL: MIC ATB in combination (KPN UFR66, AF1 @ 4 μg/mL) | MIC ATB in combination (KPN UFR68, AF1 @ 4 μg/mL) | MIC ATB in combination (KPN UFR227O, AF1 @ 4 μg/mL)
